Source: patent US10851348B2, “Proliferative primary human Sertoli cell cultures and their applications” (Mandalmed, Inc., priority 2006, dated 2020)

Tests used:
[1] = system: human Sertoli cells (MM-HSe-2305 cells); assay: BrdU proliferation of human Sertoli cells in response to FSH treatment; format: cell-based; conditions: 200-ng/ml FSH for 1 week; >50 fields; p<0.001 vs without FSH
Protocol: It has been reported that cultured rat Sertoli cells, proliferate in response to recombinant FSH (Buzzard, Wreford et al. 2002). We determined the response of the human cells to FSH treatment to provide further evidence that they are Sertoli cells. The human Sertoli cells (MM-HSe-2305 cells; 7,000 per well) were placed in 8-well chamber slides and incubated with control media or with media containing 200-ng/ml FSH (Sigma-Aldrich) for 1 week. Then the cells were labeled with BrdU that is incorporated into nuclei during DNA synthesis prior to mitosis. The slides were stained with anti-BrdU antibody (finally stained by Texas red) followed by staining with an antibody to FSHr (finally with FITC), and nuclei marked by bisbenzamide.
Briefly, the MM-HSE-2305 cells were labeled with BrdU (Roche; 100 μM) at 37° C./[…] for 2 hours then washed three times with PBS followed by fixing with 4% PFA for 30 min. […] Fluorescence was enhanced by incubating with ABC solution (Vector laboratories) for 30 min. Immunoreactivity was visualized by fluorescence microscopy using avidin-conjugated Texas red (1:200 in PBS) for 1 hour.
Photomicrographs were taken with different filters of the same field. The percentage of proliferating Sertoli cells was determined by the counting the number of FSHr, BrdU double positive cells and dividing this by the total number of cells per field. […]

[2] = system: rat Sertoli cell TJs; conditions: cited from earlier work

follicle stimulating hormone [FSH]
percent of cells undergoing proliferation (FSHr, BrdU double positive cells / total cells) [1]: 12.35%

[Cl][Cd][Cl] [Cadmium chloride, cadmium chloride]
effect on permeability of rodent Sertoli cell monolayers ([2]; effect lasted for a number of days): increased the permeability | effect on Sertoli cell TJs ([2]; in vivo, and in vitro at the 5 and 10 μM concentration): damage rat Sertoli cell TJs
